Tests used:
[1] = system: NQO1 mRNA in BEAS-2B cells; experiment: Beas2B NQO1 mRNA cell based assay; parameters: species or system human; details: Homo sapiens, BEAS-2B, 24 h, 24 h compound treatment, increase in NQO1 mRNA vs vehicle (0.1% DMSO), read-out: EC50
Experimental: Beas2B NQO1 mRNA Cell Based Assay
The up regulation of the NRF2 mediated gene NAD(P)H:quinone acceptor oxidoreductase 1 (NQO1) was measured using the following assay method: BEAS-2B cells (ATCC CRL-9609) were plated in 96-well clear plates at 20,000 cells/well in 75 μL of cell culture media and incubated overnight (37° C., 5% CO2). On day 2, 25 μL of compound or controls were added to the cells for 24 h. On day 3, the medium was aspirated from the plate and the Cells-to-CT™ 1-Step TaqMan® Kit (Ambion A25603) was used to perform expression analysis directly from cultured cells without RNA purification according to the manufacturer's instructions.
Briefly, cells were washed with ice cold PBS and 22.5 μL of room-temperature DNase/Lysis solution was added to the cells and incubated at room temperature for 5 minutes. To stop the reaction, 2.25 μL of stop solution was added to the cell lysate. The samples were diluted 1:5 using nuclease free water and 2.5 μL transferred into the PCR plate. Real-time PCR was performed using the C-1000 Thermal Cycler (Bio-Rad) using human beta actin as the internal control. The cDNA was amplified with a specific primer for NQO1 using the 1-step RT-PCR master mix (Ambion Cells-to-CT™ 1-Step TaqMan® Kit A25603). The primers/probes sets that were used for amplification of cDNA were obtained from TaqMan Gene Expression Assays (Applied Biosystems). The comparative CT (ΔΔCT) relative quantification method was used to calculate the relative mRNA level of the target gene NQO1 as described in the Applied Biosystems Chemistry Guide.

[2] = target: human KEAP1 (N-term, residues 321-609) (Homo sapiens, UniProt Q14145); experiment: biochemical;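 also: fluorescence polarization competition assay of Kelch domain binding to NRF2, 12-point 1:3 dilution series from 10 µM, read after 1 h at room temperature, floor 10 nM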
Sequence of human KEAP1 (N-term, residues 321-609) (Q14145 321-609): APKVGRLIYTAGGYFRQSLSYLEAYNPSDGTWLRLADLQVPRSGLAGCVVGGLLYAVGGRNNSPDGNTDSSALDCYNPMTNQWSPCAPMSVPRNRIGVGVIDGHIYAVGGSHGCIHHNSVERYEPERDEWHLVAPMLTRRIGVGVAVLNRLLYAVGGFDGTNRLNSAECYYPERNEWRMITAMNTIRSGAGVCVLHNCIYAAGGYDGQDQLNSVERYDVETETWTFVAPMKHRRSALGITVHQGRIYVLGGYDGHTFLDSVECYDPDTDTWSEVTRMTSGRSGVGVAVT

Row | IC50 [2] [nM] | Structure (SMILES) | EC50 [1] [nM]
1 | 8.3 | CCn1ncc(COc2ccc(Br)c3c2[C@@H](CN2Cc4ccccc4C2=O)N(C(=O)[C@@H]2CCCC[C@@H]2C(=O)O)CC3)n1 [Example 27, (1S,2R)-2-((S)-5-bromo-8-((2-ethyl-2H-1,2,3-triazol-4-yl)methoxy)-1-((1-oxoisoindolin-2-yl)methyl)-1,2,3,4-tetrahydroisoquinoline-2-carbonyl)cyclohexane-1-carboxylic acid] | 18
2 | 10 | CCn1cnc(COc2ccc(Br)c3c2[C@@H](CN2Cc4ccccc4C2=O)N(C(=O)[C@@H]2CCCC[C@@H]2C(=O)O)CC3)c1C#N [Example 43, (1S,2R)-2-((S)-5-bromo-8-((5-cyano-1-ethyl-1H-imidazol-4-yl)methoxy)-1-((1-oxoisoindolin-2-yl)methyl)-1,2,3,4-tetrahydroisoquinoline-2-carbonyl)cyclohexane-1-carboxylic acid] | 18
3 | 5.6 | Cc1cnoc1COc1ccc(Cl)c2c1[C@@H](CN1CCCC1=O)N(C(=O)[C@@H]1CCCC[C@]1(C)C(=O)O)CC2 [Example 126, (1S,2R)-2-((S)-5-chloro-8-((4-methylisoxazol-5-yl)methoxy)-1-((2-oxopyrrolidin-1-yl)methyl)-1,2,3,4-tetrahydroisoquinoline-2-carbonyl)-1-methylcyclohexane-1-carboxylic acid] | 32
4 | 11 | Cc1ccc(OCc2nnn(C)c2C(F)(F)F)c2c1CCN(C(=O)[C@@H]1CCCC[C@]1(C)C(=O)O)[C@@H]2CN1CCCC1=O [Example 174, (1S,2R)-1-Methyl-2-((S)-5-methyl-8-((1-methyl-5-(trifluoromethyl)-1H-1,2,3-triazol-4-yl)methoxy)-1-((2-oxopyrrolidin-1-yl)methyl)-1,2,3,4-tetrahydroisoquinoline-2-carbonyl)cyclohexane-1-carboxylic acid] | 6.6
5 | 5.6 | C[C@]1(C(=O)O)CCCC[C@H]1C(=O)N1CCc2c(Cl)ccc(OCc3nnc4n3CCCC4)c2[C@H]1CN1CC2(CC2)CC1=O [Example 186, (1S,2R)-2-((S)-5-chloro-1-((6-oxo-5-azaspiro[2.4]heptan-5-yl)methyl)-8-((5,6,7,8-tetrahydro-[1,2,4]triazolo[4,3-a]pyridin-3-yl)methoxy)-1,2,3,4-tetrahydroisoquinoline-2-carbonyl)-1-methylcyclohexane-1-carboxylic acid] | 4.7
6 | 5.8 | CC(=O)N1CC[C@H](Oc2ccc(Cl)c3c2[C@@H](CN2C(=O)c4ccccc4C2=O)N(C(=O)[C@@H]2CCCC[C@@H]2C(=O)O)CC3)C1 [Example 12, (1S,2R)-2-((S)-8-(((S)-1-Acetylpyrrolidin-3-yl)oxy)-5-chloro-1-((1,3-dioxoisoindolin-2-yl)methyl)-1,2,3,4-tetrahydroisoquinoline-2-carbonyl)cyclohexane-1-carboxylic acid] | 8.6
7 | 5.1 | Cn1nnc(COc2ccc(Cl)c3c2[C@@H](CN2CC4(CC4)CC2=O)N(C(=O)[C@@H]2C[C@@H]4C[C@@H]4C[C@]2(C)C(=O)O)CC3)c1C(F)F [Example 207, (1R,3S,4R,6S)-4-((S)-5-chloro-8-((5-(difluoromethyl)-1-methyl-1H-1,2,3-triazol-4-yl)methoxy)-1-((6-oxo-5-azaspiro[2.4]heptan-5-yl)methyl)-1,2,3,4-tetrahydroisoquinoline-2-carbonyl)-3-methylbicyclo[4.1.0]heptane-3-carboxylic acid] | 0.89
8 | 6 | O=C(O)[C@H]1CCCC[C@H]1C(=O)N1CCc2c(Br)ccc(OCc3ccn4ccnc4c3)c2[C@H]1CN1Cc2ccccc2C1=O [Example 32] | 75
9 | 7.7 | O=C(O)[C@H]1CCCC[C@H]1C(=O)N1CCc2c(Cl)ccc(OCc3nnc4ccccn34)c2[C@H]1CN1CCCC1=O [Example 94, (1S,2R)-2-((S)-8-([1,2,4]Triazolo[4,3-a]pyridin-3-ylmethoxy)-5-chloro-1-((2-oxopyrrolidin-1-yl)methyl)-1,2,3,4-tetrahydroisoquinoline-2-carbonyl) cyclohexane-1-carboxylic acid] | 7.8
10 |  | Cn1nnc(COc2ccc(Cl)c3c2[C@@H](CN2CC4(CC4)CC2=O)N(C(=O)[C@@H]2CCCC[C@@H]2C(=O)O)CC3)c1C(F)F [Example 197, (1S,2R)-2-((S)-5-Chloro-8-((5-(difluoromethyl)-1-methyl-1H-1,2,3-triazol-4-yl)methoxy)-1-((6-oxo-5-azaspiro [2.4]heptan-5-yl)methyl)-1,2,3,4-tetrahydroisoquinoline-2-carbonyl) cyclohexane-1-carboxylic acid] | 0.51
11 |  | Cn1nnc(COc2ccc(Cl)c3c2[C@@H](CN2CCCC2=O)N(C(=O)[C@@H]2CCCC[C@]2(C)c2nn[nH]n2)CC3)c1C(F)F [Example 151, 1-(((S)-5-chloro-8-((5-(difluoromethyl)-1-methyl-1H-1,2,3-triazol-4-yl)methoxy)-2-((1R,2S)-2-methyl-2-(2H-tetrazol-5-yl)cyclohexane-1-carbonyl)-1,2,3,4-tetrahydroisoquinolin-1-yl)methyl)pyrrolidin-2-one] | 16
12 |  | Cn1nnc(COc2ccc(Cl)c3c2[C@@H](CN2CC4(CC4)CC2=O)N(C(=O)[C@@H]2CCCC[C@@H]2c2nnn[nH]2)CC3)c1C(F)F [Example 202, 5-(((S)-2-((1R,2S)-2-(1H-tetrazol-5-yl)cyclohexane-1-carbonyl)-5-chloro-8-((5-(difluoromethyl)-1-methyl-1H-1,2,3-triazol-4-yl)methoxy)-1,2,3,4-tetrahydroisoquinolin-1-yl)methyl)-5-azaspiro[2.4]heptan-6-one] | 79
13 |  | O=C1CCCN1C[C@@H]1c2c(OCc3noc4ccccc34)ccc(Cl)c2CCN1C(=O)[C@@H]1CCCC[C@@H]1c1nn[nH]n1 [Example 81, 1-(((S)-2-((1R,2S)-2-(2H-tetrazol-5-yl)cyclohexane-1-carbonyl)-8-(benzo[d]isoxazol-3-ylmethoxy)-5-chloro-1,2,3,4-tetrahydroisoquinolin-1-yl)methyl)pyrrolidin-2-one] | 260
14 |  | C[C@@H]1CC(=O)N(C[C@@H]2c3c(OCc4nnn(C)c4C(F)(F)F)ccc(Cl)c3CCN2C(=O)[C@H]2CCCC[C@]2(C)C(=O)O)C1 [Example 133, (1S,2S)-2-((S)-5-chloro-1-(((R)-4-methyl-2-oxopyrrolidin-1-yl)methyl)-8((1-methyl-5-(trifluoromethyl)-1H-1,2,3-triazol-4-yl)methoxy)-1,2,3,4-tetrahydroisoquinoline-2-carbonyl)-1-methylcyclohexane-1-carboxylic acid] | 20
15 |  | C[C@]1(C(=O)O)CCCC[C@H]1C(=O)N1CCc2c(Cl)cc(F)c(OCc3nnn4c3CCCC4)c2[C@H]1CN1CC2(CC2)CC1=O [Example 144, (1S,2R)-2-((S)-5-chloro-7-fluoro-1-((6-oxo-5-azaspiro[2.4]heptan-5-yl)methyl)-8-((4,5,6,7-tetrahydro-[1,2,3]triazolo[1,5-a]pyridin-3-yl)methoxy)-1,2,3,4-tetrahydroisoquinoline-2-carbonyl)-1-methylcyclohexane-1-carboxylic acid] | 0.022
16 |  | O=C(O)[C@H]1CCCC[C@H]1C(=O)N1CCc2c(Cl)ccc(OCc3noc4ccccc34)c2[C@H]1CN1CCCC1=O [Example 72, (1S,2R)-2-((S)-8-(Benzo[d]isoxazol-3-ylmethoxy)-5-chloro-1-((2-oxopyrrolidin-1-yl)methyl)-1,2,3,4-tetrahydroisoquinoline-2-carbonyl)cyclohexane-1-carboxylic acid] | 2.8
